How the values were obtained:
[1] = tested on: axenic iRFP-L. infantum amastigotes from bone marrow cells; test: Axenic amastigote viability assay (iRFP fluorescence, first screening); assay type: cell-based; conditions: Leishmania infantum, Bone marrow cell, cut-off 25 µM, 72 h, read-out: Axenic Amastigotes (concentration with inhibition)
Protocol: (§1) The 1,5- and 1,8-fused naphthyridine derivatives were evaluated as antileishmanial agents in assays using two forms of L. infantum amastigotes: axenic amastigotes recovered from bone marrow cells of infected BALB/c mice and intramacrophagic amastigotes obtained from splenic explants of the same subjects. The L. infantum strain used is a genetically modified strain previously engineered by our group to constitutively express the infrared protein iRFP from Rhodopseudomonas palustris bacteriophytochrome (iRFP L. infantum). This strain allows monitoring the viability of both forms of the parasite by quantifying the fluorescence emitted at 700 nm by the iRFP protein produced by living amastigotes.
(§2) Amastigotes obtained from mouse bone marrow cells were used to perform a first screening with the complete series of fused 1,5- and 1,8-naphthyridines. […] The toxicity of these selected compounds was assessed in non-infected splenic cells and the cytotoxic concentration (CC50) value obtained was used to calculate the selective index (SI). The oral tolerability of these same compounds was tested by calculating the viability of murine intestinal organoids exposed to two concentrations (50 and 25 µM).
To obtain iRFP-L. infantum axenic amastigotes, femur and tibia were carefully cut at both ends, and marrow cells were removed by passing PBS through the medullary cavity with a 29G needle. The bone marrow cell suspension was filtered through a 100 µm cell strainer and centrifuged at 3500× g for 10 min at room temperature. After centrifugation, cells were resuspended in amastigote culture medium: 15 mM KCl; 136 mM KH2PO4; 10 mM K2HPO4·3H2O; 0.5 mM MgSO4. 7H2O; 24 mM NaHCO3; 22 mM glucose; 1 mM glutamine, 1xRPMI 1640 vitamin mix (Sigma-Aldrich, Merck, Darmstadt, Germany), 10 mM folic acid, 100 mM adenosine, 1xRPMI amino acid mix (Sigma-Aldrich, Merck, Darmstadt, Germany), 5 mg/mL hemin, antibiotic cocktail, 25 mM MES and 10% FBS, and incubated at 37 °C.
To test the antileishmanial effect of naphthyridines on axenic amastigotes, 40 μL of a suspension containing 3 × 10^4 iRFP-L. infantum parasites per well were incubated with another 40 μL of the drugs dilutions in amastigote culture medium with 7.5% FBS. Incubations were performed in 384-well black microtiter plates with an optical bottom at 37 °C and 5% CO2 for 72 h. Solutions of 0.1% (v/v) DMSO and 10 μM AMB were used as negative and positive controls, respectively. The assays were performed by triplicate.
(§3) The viability of axenic and intramacrophage amastigotes was calculated measuring the fluorescence emitted at 700 nm by the iRFP protein from live parasites and recorded by an Odyssey infrared imaging system (Li-Cor, NE, USA). The fluorescence emitted by the negative control wells was considered 100% viability, whereas the fluorescence emitted by the positive control wells, was adjusted to 0% viability.

[2] = tested on: intramacrophagic iRFP-L. infantum amastigotes from murine spleens; test: Ex vivo intramacrophagic amastigote viability assay (iRFP fluorescence); assay type: cell-based, Leishmania infantum; conditions: for EC50: Leishmania infantum, ex vivo murine splenic explants, 72 h, read-out: Intracellular Amastigotes EC50; for antileishmanial activity against Leishmania amastigotes (in words): summary in discussion
Protocol: as §1, §2
Intramacrophagic amastigotes were obtained by cutting spleens into small pieces that were incubated for 25 min with 0.5 mL of collagenase D (2 mg/mL) (Merck, Darmstadt, Germany) dissolved in 4.5 mL buffer (10 mM HEPES, pH 7.4, 150 mM NaCl, 5 mM KCl, 1 mM MgCl2 and 1.8 mM CaCl2). The cell suspension was filtered through a 100 µm cell strainer. After erythrocyte lysis (150 mM NH4Cl, 1 mM KHCO3, 0.1 mM EDTA), splenocytes were centrifuged three times at 500× g for 7 min at 4 °C, with PBS washes between each centrifugation. The splenocyte suspension containing intramacrophagic amastigotes was resuspended in RPMI medium (Gibco, Fisher Scientific, Waltham, MA, USA) supplemented with 20% FBS, 1 mM sodium pyruvate, 24 mM NaHCO3, 2 mM L-glutamine, 1× RPMI vitamins, 25 mM HEPES and antibiotic cocktail.
For the ex vivo intramacrophagic amastigote assay, 40 μL of one-half or one-third serial dilutions of each diluted in supplemented RPMI medium, were added to black 384-well optical-bottom black plates containing 40 μL of murine splenocytes obtained as described above. Positive controls (containing 10 μM of AMB) and negative controls (containing 0.1% v/v DMSO) were included. The plates were incubated at 37 °C and 5% CO2, for a maximum period of 72 h and the assays were performed by triplicate.
as §3
Fluorescence emitted by intramacrophage amastigotes were plotted against the drug concentration using the nonlinear fit analysis provided by the Sigma Plot 10.1 statistical package to obtain EC50 values.

two cancer cell lines = tested on: two cancer cell lines; parameters: method as in PMID 31229877, PMID 32279049, PMID 33962152; conditions: cited from earlier work
[3] = tested on: recombinant human DNA topoisomerase IB (hTopIB); parameters: method as in PMID 31229877, PMID 32279049, PMID 33962152; dose or concentration left out as unconfirmed; conditions: cited from earlier work
[4] = Cytotoxicity in uninfected murine splenic cells (alamarBlue); assay type: cell-based, mouse; conditions: mouse; uninfected splenic cells, 72 h, alamarBlue; read-out: Mouse Splenic Macrophages CC50
Protocol: (§4) Amastigotes obtained from mouse bone marrow cells were used to perform a first screening with the complete series of fused 1,5- and 1,8-naphthyridines. […] The toxicity of these selected compounds was assessed in non-infected splenic cells and the cytotoxic concentration (CC50) value obtained was used to calculate the selective index (SI). The oral tolerability of these same compounds was tested by calculating the viability of murine intestinal organoids exposed to two concentrations (50 and 25 µM). In order to assess the in vitro safety of the naphthyridines, cytotoxicity assays were carried out in ex vivo splenic explants from uninfected mice, which were prepared as previously described to obtain intramacrophagic amastigotes. Cells were seeded at a density of 1 × 10^6 cells per well in 96-well plates containing the prediluted compounds and incubated at 37 °C and 5% CO2 during 72 h. AlamarBlue assay (Invitrogen, Fisher Scientific, Waltham, MA, USA) was used to estimate cell viability following manufacturer’s recommendations. The assays were performed by triplicate. Absorbance of viable cells vs. compound concentrations were fitted by nonlinear analysis using the Sigma Plot 10.1 statistical package to calculate the cytotoxic concentration 50 (CC50) values. Selectivity index (SI) was calculated as the ratio between CC50 and the EC50 values of intramacrophagic amastigotes.

[5] = tested on: mouse splenic macrophages; test: as above; assay type: cell-based; conditions: summary in discussion
Protocol: as §4

[6] = tested on: leishmanial DNA topoisomerase IB (LdTopIB); test: Relaxation of supercoiled plasmid DNA assay; assay type: biochemical, Leishmania; conditions: 100 μM of compounds, 1 min at 37 °C, in words
Protocol: page 2: DNA DMSO 6b8a8b8c9b10b11a13a13b14a7c8d15b Relaxationof supercoiled plasmid DNA assay. Each reaction contains one unit of purified leishmanial DNA topisomeraseIB enzyme (LdTopIB), 100 μM ofcompounds, 0.5μg of supercoiled […], 10 mM Tris-HCl buffer pH 7.5, 5 mM MgCl 2, 0.1 mM EDTA, 15 μg/mL bovine serum albumin, 150 mM KCl. Reaction mixtures were incubated 1 min at 37 °C and stopped by the addition of 4 μL loading buffer (5% sarkosyl, 0.12% bromophenol blue, 25% glycerol). The topoisomerswere resolved in 1% agarose gels by electrophoresis in 0.1 M Tris borate EDTA buffer (pH 8.0) at 2 V/cm for 16 h and visualized with UV illumination after ethidium bromide (0.5μg/mL) staining. […]

Compound	minimal effective concentration [1] [µM]	EC50 [2] [µM]	other results
c1ccc([C@@H]2c3ncccc3NC3c4ccccc4OCC32)cc1 (stereo partly shown) [Compound 4a]	> 25		
COc1ccc2c(n1)[C@@H](c1ccccc1)C1COc3ccccc3C1N2 (stereo partly shown) [Compound 4c]	> 25		
c1ccc(-c2c3c(nc4cccnc24)-c2ccccc2OC3)cc1 [Compound 5a]	> 25		
Brc1ccc2nc3c(c(-c4ccccc4)c2n1)COc1ccccc1-3 [Compound 5b]	> 25		
COc1ccc2nc3c(c(-c4ccccc4)c2n1)COc1ccccc1-3 [Compound 5c]	> 25		
O=C1Oc2ccccc2C2Nc3cccnc3[C@@H](c3ccccc3)C12 (stereo partly shown) [Compound 6a]	> 25		
COc1ccc2c(n1)[C@@H](c1ccccc1)C1C(=O)Oc3ccccc3C1N2 (stereo partly shown) [Compound 6c]	> 25		
O=c1oc2ccccc2c2nc3cccnc3c(-c3ccccc3)c12 [Compound 7a]	> 25		
O=c1oc2ccccc2c2nc3ccc(Br)nc3c(-c3ccccc3)c12 [Compound 7b]	> 25		
Cc1ccc(S(=O)(=O)N2Cc3c(nc4cccnc4c3-c3ccccc3)-c3ccccc32)cc1 [Compound 9a]	> 25		
COc1ccc2nc3c(c(-c4ccccc4)c2n1)CN(S(=O)(=O)c1ccc(C)cc1)c1ccccc1-3 [Compound 9c]	> 25	> 20	
Cc1ccc(S(=O)(=O)N2Cc3c(nc4ccc(Br)nc4c3-c3ccccc3)-c3ccccc32)cc1 [Compound 9d]	> 25	> 20	
c1ccc([C@@H]2c3cccnc3NC3c4ccccc4OCC32)cc1 (stereo partly shown) [Compound 10a]	> 25	> 20	cytotoxic effects on two cancer cell lines (concentration range) (two cancer cell lines): 1 to 15 µM; antileishmanial activity against Leishmania amastigotes (in words) [2]: not effective against Leishmania amastigotes; inhibitory effect on DNA relaxation activity of hTopIB [3]: had an inhibitory effect on DNA relaxation activity
Cc1ccc2c(c1)C1Nc3ncccc3[C@@H](c3ccccc3)C1CO2 (stereo partly shown) [Compound 10c]	> 25	> 20	
Fc1ccc2c(c1)-c1nc3ncccc3c(-c3ccccc3)c1CO2 [Compound 11b]	> 25	> 20	
COc1ccc(-c2c3c(nc4ncccc24)-c2ccccc2OC3)cc1 [Compound 11c]	> 25	> 20	
O=C1Oc2ccccc2C2Nc3ncccc3[C@@H](c3ccccc3)C12 (stereo partly shown) [Compound 12a]	> 25	> 20	
O=C1Oc2ccccc2C2Nc3ncc(Br)cc3[C@@H](c3ccccc3)C12 (stereo partly shown) [Compound 12b]	> 25	> 20	
O=c1oc2ccc(F)cc2c2nc3ncccc3c(-c3ccccc3)c12 [Compound 13c]	> 25	> 20	
Cc1ccc(S(=O)(=O)N2Cc3c(nc4ncccc4c3-c3ccccc3)-c3ccccc32)cc1 [Compound 15a]	< 25	67.4 ± 9.78	cytotoxic effects on two cancer cell lines (concentration range) (two cancer cell lines): 1 to 15 µM; SI ([2]; ratio CC50 (splenic macrophages) / EC50 (intramacrophagic amastigotes)): 0.1; antileishmanial activity against Leishmania amastigotes (in words) [2]: significant antileishmanial activity; CC50 at 72 h [4]: 8.78 ± 2.21 µM; toxicity (in words) [5]: significant toxicity; inhibitory effect on DNA relaxation activity of hTopIB [3]: had an inhibitory effect on DNA relaxation activity; LdTopIB inhibitory activity [6]: did not show leishmanial DNA topoisomerase IB (LdTopIB) inhibitory activity

Reference: paper PMC10780244, “Antileishmanial Effect of 1,5- and 1,8-Substituted Fused Naphthyridines” (Molecules, 2023)
